Experimental data taken from patent US9981940B2, “Aryl sulfide derivatives and aryl sulfoxide derivatives as acaricides and insecticides” (BAYER CROPSCIENCE AKTIENGESELLSCHAFT, priority 2013, dated 2018).

Experiments:
Tetranychus urticae = Tetranychus urticae spray test, OP-resistant (TETRUR); type: in vivo; settings: application rate of 500 g/ha, after 6 days; for pest or weed control at 500 g/ha: Tetranychus urticae, 144 h, read-out: efficacy
Experimental: Tetranychus urticae—Spray Test, OP-Resistant (TETRUR)
• Solvent: 78.0 parts by weight of acetone • 1.5 parts by weight of dimethylformamide • Emulsifier: 0.5 part by weight of alkylaryl polyglycol ether
To produce an appropriate active ingredient formulation, 1 part by weight of active ingredient is mixed with the specified amounts of solvent and emulsifier, and the concentrate is diluted to the desired concentration with emulsifier-containing water.
Discs of bean leaves (Phaseolus vulgaris) infested by all stages of the greenhouse red spider mite (Tetranychus urticae) are sprayed with an active ingredient formulation of the desired concentration.
After 6 days, the efficacy in % is determined 100% means that all the spider mites have been killed; 0% means that none of the spider mites have been killed.

[1] = log P by HPLC (OECD Guideline 117), method [a] acidic range; type: physicochemical; settings: for chromatographic logP: reversed-phase C18 HPLC column, acidic range; for logP[a]: HPLC, method [a] acidic range
Experimental: (§1) The log P values were determined analogously to OECD Guideline 117 (EC Directive 92/69/EEC) by HPLC (high-performance liquid chromatography) using reversed-phase columns (C 18), by the following methods:
[a] The LC-MS determination in the acidic range is effected at pH 2.7 with 0.1% aqueous formic acid and acetonitrile (contains 0.1% formic acid) as eluents; linear gradient from 10% acetonitrile to 95% acetonitrile.

[2] = log P by HPLC (OECD Guideline 117), method [b] neutral range; type: physicochemical; settings: HPLC; for chromatographic logP: reversed-phase C18 HPLC column, neutral range, pH 7.8; for logP[b]: method [b] neutral range
Experimental: as §1
[b] The LC-MS determination in the neutral range is effected at pH 7.8 with 0.001 molar aqueous ammonium hydrogencarbonate solution and acetonitrile as eluents; linear gradient from 10% acetonitrile to 95% acetonitrile.

[3] = pH 2.7, HPLC method [a], read-out: logP[a]
[4] = pH 2.7, HPLC, pH 2.7, read-out: log P[a]

Compound | pest or weed control at 500 g/ha (Tetranychus urticae) | chromatographic logP [1, 3] | chromatographic logP [1, 4] | chromatographic logP [2] | efficacy (Tetranychus urticae) | logP[a] [1] | logP[b] [2]
Cc1nn(-c2cc([S+]([O-])CC(F)(F)F)c(C)cc2F)c(=O)o1 (stereo not drawn) [Example 451, 3-{2-Fluoro-4-methyl-5-[(2,2,2-trifluoroethyl)sulphinyl]phenyl}-5-methyl-1,3,4-oxadiazol-2(3H)-one] | 90% | 1.99 | 1.99 | 2.02 | – | – | –
CCn1ccn(-c2cc(SCC(F)(F)F)c(C)cc2F)c1=O [Example 486, 1-Ethyl-3-{2-fluoro-4-methyl-5-[(2,2,2-trifluoroethyl)sulphanyl]phenyl}-1,3-dihydro-2H-imidazol-2-one] | 100% | 2.84 | 2.84 | 2.79 | – | – | –
Cc1nn(-c2cc(SCC(F)(F)F)c(C)cc2F)c(=O)o1 [Example 448, 3-{2-Fluoro-4-methyl-5-[(2,2,2-trifluoroethyl)sulphanyl]phenyl}-5-methyl-1,3,4-oxadiazol-2(3H)-one] | 100% | 3.11 | 3.11 | 3.09 | – | – | –
CCn1c(C(F)(F)F)nn(-c2cc(SCC(F)(F)F)c(C)cc2F)c1=O [Example 57] | – | – | – | – | 90% | 3.96 | 3.88
Cc1cc(F)c(-n2nc(SCC(F)(F)F)n(C3CC3)c2=O)cc1[S+]([O-])CC(F)(F)F (stereo not drawn) [Example 255] | – | – | – | – | 100% | 2.93 | 2.89
CCCCn1c(C(F)(F)F)nn(-c2cc([S+]([O-])CC(F)(F)F)c(C)cc2F)c1=O (stereo not drawn) [Example 365] | – | – | – | – | 100% | 3.61 | 3.54
O=c1n(-c2ccc(Cl)c(SCC(F)(F)F)c2)nc(C(F)(F)F)n1C1CC1 [Example 51] | – | – | – | – | 90% | 4.43 | 4.39
O=c1n(-c2cc([S+]([O-])CC(F)(F)F)c(Cl)cc2F)nc(OCC(F)(F)F)n1C1CC1 (racemic) [Example 382] | – | – | – | – | 100% | 3.22 | 3.13
Cc1cc(F)c(-n2nc(C3CC3)n(N(C)C)c2=O)cc1SCC(F)(F)F [Example 195, 5-Cyclopropyl-4-(dimethylamino)-2-{2-fluoro-4-methyl-5-[(2,2,2-trifluoroethyl)sulphanyl]phenyl}-2,4-dihydro-3H-1,2,4-triazol-3-one] | 100% | 3.75 | 3.75 | 3.73 | – | – | –
CCn1c(Cl)nn(-c2cc(SCC(F)(F)F)c(C)cc2F)c1=O [Example 434] | – | – | – | – | 100% | 3.45 | 3.40
Cc1cc(F)c(-n2nc([S+](C)[O-])n(C)c2=O)cc1SCC(F)(F)F (stereo not drawn) [Example 232] | – | – | – | – | 90% | 2.25 | 2.21
COC1=CC(=O)N(c2ccc(C)c(SCC(F)(F)F)c2)C1 [Example 316] | – | – | – | – | 90% | 2.98 | 2.95
Cc1cc(F)c(-n2nc(OCC(C)(C)C)n(C)c2=O)cc1[S+]([O-])CC(F)(F)F (stereo not drawn) [Example 165] | – | – | – | – | 100% | 3.21 | 3.15
COc1nn(-c2cc([S+]([O-])CC(F)(F)F)c(C)cc2F)c(=O)n1CC1CC1 (stereo not drawn) [Example 412] | – | – | – | – | 100% | 2.54 | 2.52
Cc1cc(F)c(-n2nc(OCC(C)C)n(C)c2=O)cc1SCC(F)(F)F [Example 148] | – | – | – | – | 90% | 4.03 | 3.92
Cc1cc(F)c(-n2nc(SC(C)C)n(C3CC3)c2=O)cc1[S+]([O-])CC(F)(F)F (stereo not drawn) [Example 267] | – | – | – | – | 100% | 3.19 | 3.12
Cc1cc(F)c(-n2nc(C)n(-c3ccccc3)c2=O)cc1[S+]([O-])CC(F)(F)F (racemic) [Example 356] | – | – | – | – | 100% | 2.38 | 2.35

Compound | pest or weed control at 500 g/ha (Tetranychus urticae) | chromatographic logP [1, 3] | chromatographic logP [1, 4] | chromatographic logP [2] | efficacy (Tetranychus urticae) | logP[a] [1] | logP[b] [2]
COn1c(C(C)C)nn(-c2cc(SCC(F)(F)F)c(C)cc2F)c1=O [Example 418] | – | – | – | – | 90% | 3.52 | 3.49
CCCc1nn(-c2cc(SCC(F)(F)F)c(C)cc2F)c(=O)o1 [Example 460] | – | – | – | – | 100% | 3.94 | 3.92
Cc1cc(F)c(-n2nc(C(C)C)n(C3CC3)c2=S)cc1SCC(F)(F)F [Example 494] | – | – | – | – | 100% | 4.1 | 4.02
Cc1cc(F)c(-n2nc([S+](C)[O-])n(C3CC3)c2=O)cc1SCC(F)(F)F (stereo not drawn) [Example 230] | – | – | – | – | 100% | 2.45 | 2.40
CCn1c(C(F)(F)F)nn(-c2cc(SCC(F)(F)F)c(C)cc2Cl)c1=O [Example 50] | – | – | – | – | 100% | 4.14 | 4.07
Cc1cc(F)c(-n2nc(OC(C)C)n(C3CC3)c2=O)cc1[S+]([O-])CC(F)(F)F (stereo not drawn) [Example 100] | – | – | – | – | 100% | 2.82 | 2.79
Cc1cc(F)c(-n2nc(S(C)(=O)=O)n(C)c2=O)cc1[S+]([O-])CC(F)(F)F (stereo not drawn) [Example 421, 2-{2-Fluoro-4-methyl-5-[(2,2,2-trifluoroethyl)sulphinyl]phenyl}-4-methyl-5-(methylsulphonyl)-2,4-dihydro-3H-1,2,4-triazol-3-one] | 100% | 1.88 | 1.88 | 1.84 | – | – | –
C=CCSc1nn(-c2cc([S+]([O-])CC(F)(F)F)c(C)cc2F)c(=O)n1C (racemic) [Example 291] | – | – | – | – | 100% | 2.55 | 2.51
C=CCn1c(SCC)nn(-c2cc([S+]([O-])CC(F)(F)F)c(C)cc2F)c1=O (stereo not drawn) [Example 431] | – | – | – | – | 90% | 2.83 | 2.92
Cc1cc(F)c(-n2nc(C3CCCC3)n(C3CC3)c2=O)cc1SCC(F)(F)F [Example 358, 5-Cyclopentyl-4-cyclopropyl-2-{2-fluoro-4-methyl-5-[(2,2,2-trifluoroethyl)sulphanyl]phenyl}-2,4-dihydro-3H-1,2,4-triazol-3-one] | 100% | 4.18 | 4.18 | 4.2 | – | – | –
CCC(C)c1nn(-c2cc(SCC(F)(F)F)c(C)cc2F)c(=S)n1C1CC1 (stereo not drawn) [Example 499] | – | – | – | – | 90% | 4.46 | 4.39
CCCCc1nn(-c2cc(SCC(F)(F)F)c(C)cc2F)c(=S)n1C1CC1 [Example 495] | – | – | – | – | 100% | 4.52 | 4.43
Cc1cc(F)c(-n2nc(N(C)C)n(C3CC3)c2=O)cc1[S+]([O-])CC(F)(F)F (racemic) [Example 194] | – | – | – | – | 100% | 2.17 | 2.12
CCSc1nn(-c2cc(SCC(F)(F)F)c(C)cc2F)c(=O)n1C1CC1 [Example 261] | – | – | – | – | 100% | 3.99 | 4.03
CCc1nn(-c2cc(SCC(F)(F)F)c(C)cc2F)c(=O)n1-c1cccnc1 [Example 348] | – | – | – | – | 90% | 2.91 | 2.87
CCn1c([S+]([O-])CC)nn(-c2cc([S+]([O-])CC(F)(F)F)c(C)cc2F)c1=O (stereo not drawn) [Example 252] | – | – | – | – | 100% | 1.90 | 1.87
